Laboratory results published in US5776935A, “Pyrido-phtalazin diones and their use against neurological disorders associated with excitotoxicity and malfunctioning of glutamatergic neurotransmission” (Merz & Co. GmbH & Co., priority 1996, dated 1998).
pIC50: −log10 of the molar value. Like-named read-outs stand apart in the source and are kept apart here.

Key:
AMPA receptor = experiment: Patch clamp, inward currents to AMPA in cultured superior colliculus neurones; assay type: cell-based, rat; conditions: AMPA 100 μM
Description: Cells were mechanically dissociated in 0.05% DNAase / 0.3% ovomucoid (Sigma) following a 15 minute pre-incubation with 0.66% trypsin / 0.1% DNAase (Sigma). The dissociated cells were then centrifuged at 18G for 10 minutes, resuspended in minimum essential medium (Gibco) and plated at a density of 200,000 cells cm onto poly-L-lysine (Sigma)-precoated plastic petri dishes (Falcon). The cells were nourished with NaHCO3 /HEPES-buffered minimum essential medium supplemented with 5% foetal calf serum and 5% horse serum (Gibco) and incubated at 37° C. with 5%CO2 at 95% humidity. The medium was exchanged completely following inhibition of further glial mitosis with cytosine-β-D-arabinofuranoside (20 μM Sigma) after about 7 days in vitro. Thereafter the medium was exchanged partially twice weekly. […] Moreover, the relatively small neurones (soma 15-20 μm .phi.) are ideally suited to minimise problems of buffered diffusion for concentration clamp experiments.
Patch clamp recordings were made from these neurones with polished glass electrodes (4-6 m.OMEGA.) in the whole cell mode at room temperature (20°-22° C.) with the aid of an EPC-7 amplifier (List). Test substances were applied by switching channels of a custom made fast superfusion system with a common outflow (10-20 ms exchange times). The contents of the intracellular solution were as follows (mM): CsCl (120), TEACl (20), EGTA (10), MgCl2 (1), CaCl2 (0.2), glucose (10), ATP (2), cAMP (0.25); pH was adjusted to 7.3 with CsOH or HCl. The extracellular solutions had the following basic composition (mM): NaCl (140), KCl (3), CaCl2 (0.2), glucose (10), HEPES (10), sucrose (4.5), tetrodotoxin (TTX 3*10-4). For most experiments glycine (1 μM) was present in all solutions. Experiments to test the glycine-dependence of the tricyclic "pyrido-phtalazin diones" were performed in the continuous presence of increasing concentrations of glycine (1-10 μM).
In contrast, three of these potent glycine, antagonists were only very weak antagonists of inward currents to AMPA (100 μM). […] This profile of action, although very weak, is typical for competitive AMPA receptor antagonists which preferentially block the peak non-desensitised state, low affinity state of the receptor (see Parsons et al., 1994).

organic acid transport = experiment: Duration of anticonvulsive action with and without probenecid; assay type: in vivo, mouse; conditions: listed as 2/514
Description: To assess NMDA receptor antagonistic properties of the tested agents by assessing anticonvulsive effects. Additionally the role of organic acid transporters in the elimination from the brain of tested agents was assessed by using an inhibitor, Probenicid, on the duration of anticonvulsive activity.
Male albino Swiss mice (19-21 g) housed 10-15 per cage were used for the NMDA lethality test (Leander et al., 1988). For pentylenetetrazol (PTZ)-induced convulsions male albino Swiss mice (25-34 g.) housed 40 per cage (58×38×20 cm) were used while in the maximal electroshock (MES) and motor impairment tests NMR female mice (18-28 g) housed 5 per cage were employed. All animals were kept with water and food ad libittum under a 12-h light-dark cycle (light on at 6 a.m.), and at a controlled temperature (20°±0.5° C.). All experiments were performed between 10 a.m. and 5 p.m. Tested agents were injected 15 min. i.p before the induction of convulsions if not stated otherwise (see below). Mrz 2/502 was dissolved in saline added with NaOH. Most other agents were dissolved in the following solution: 0.606 g Tris; 5.0 g. glucose; 0.5 g. Tween 80; and 95 ml water. The choline and tetramethylammonium salts were dissolved in distilled water.
MES (100 Hz, 0.5 sec shock duration, 50 mA shock intensity, 0.9 ms impulse duration, Ugo Basile) was applied through corneal electrodes. The presence of tonic convulsions was scored (tonic extension of hind paws with minimum angle to the body of 90°). In an additional experiment mice were injected with Probenicid (200 mg/kg) 30 min before administration of the tested agents to assess the role of organic acid transport in elimination (duration of action). The aim was to obtain ED50 s for all parameters scored using the Litchfield Wilcoxon (1949) test for quantal dose responses.
Moreover it seems that choline salts have a longer duration of action. Probenecid injection prolonged considerably the duration of anticonvulsive action of all agents tested. For example the half lives of 2/514 and 2/570 were around 40 and 80 minutes respectively in the absence of probenicid. In the presence of probenicid the half lives were prolonged to around 180 and 210 minutes respectively. Thus, it seems that organic acids transport in the choroid plexus out of the brain plays an important role in the short duration of action of the compounds tested..

[1] = In vivo systemic and / or CNS availability
cortical neurones = experiment: Excitotoxicity in vitro (NMDA, LDH efflux); assay type: cell-based, rat; conditions: for pIC50: Rattus norvegicus, Cortical neurone, 0.5 mM NMDA/1 μM glycine, 24 h, read-out: Cytotoxicity in vitro IC50; for neuroprotection in vitro: low μM concentrations
Description: Isolation of cortical neurones was similar to that described for patch clamp recordings except for the use of foetal rats at 17-19 days gestation. Neurones were plated in 24-multiwell (Greiner) at a density of 300,000 cells/well coated with poly-D-lysine 0.025 mg/ml. Cells were cultured in Dulbecco's modified essential medium (DMEM, GIBCO) supplemented with 10% heat inactivated foetal calf serum (GIBCO). Cultures were maintained at 37° C. at 5% CO2. The medium was changed first after one week and then every 3 days by replacing half of the medium with fresh medium. Cultures aged 17 days were used for experiments.
Exposure to EAA was performed in serum-free MEM-N2 medium (Bottenstein 1979) containing 0.5 mM NMDA/1 μM glycine and the drug to be tested. Cells were pre-incubated with drugs and 1 μM glycine for 15 minutes before addition of NMDA. After 24 h the cytotoxic effect was morphologically examined under a phase contrast microscope and biochemically quantitified by measuring the efflux of LDH.
The activity of LDH was determined in the supernatant after 24 h according to the method of Wroblewski and La Due (1955). Briefly, 0.1 ml of the supernatant was added to 0.9 ml sodium-phosphate buffer (pH=7.5) containing sodium pyruvate (22.7 mM) and NADH (0.8 mg/10 ml) at room temperature. The conversion of pyruvate to lactate was recorded at 340 nm over 10 minutes in a Kontron Spectrophotometer.

NMDA receptor = target: T1, NMDA receptor (Rattus norvegicus, UniProt P35439); experiment: Microelectrophoretic application of NMDA to spinal neurones in vivo; conditions: i.v., responses of single rat spinal neurones
T1 construct: endogenous in cells
Description: (§1) The ability of these glycineB antagonists to act as NMDA receptor antagonists in vivo was assessed using i.v. administration against responses of single neurones in the rat spinal cord to microelectrophoretic application of AMPA and NMDA.

AMPA = experiment: Microelectrophoretic application of AMPA to spinal neurones in vivo; conditions: i.v., responses of single rat spinal neurones
Description: as §1

[2] = peak currents, read-out: IC50 against peak AMPA induced currents
[3] = peak currents, read-out: Peak AMPA IC50
[4] = plateau currents, read-out: Plateau AMPA IC50

Row | SMILES | pIC50 (AMPA receptor; [2]) | pIC50 (AMPA receptor; [3]) | pIC50 (AMPA receptor; [4]) | in vivo systemic and / or CNS availability versus associated class I compounds [1] | pIC50 (cortical neurones) | neuroprotection in vitro (cortical neurones) | Microelectrophoretic NMDA ID50 (NMDA receptor) | Microelectrophoretic AMPA ID50 (AMPA) | other results
1 | O=c1[nH]nc(O)c2c1cc1cc(Br)ccc1[n+]2[O-] [Mrz 2/514, 8-bromo-4-hydroxy-1-oxo-1,2-dihydropyridazino[4,5-b]-quinoline 5-oxide] | 4.14 | 4.14 | < 4.00 | much better | – | – | – | – | pIC50 (AMPA receptor; plateau currents, listed as 514, read-out: Plateau AMPA IC50): 3.51; half life of anticonvulsive action (organic acid transport; absence of probenecid): around 40 minutes; half life of anticonvulsive action (organic acid transport; presence of probenecid 200 mg/kg, 30 min before): around 180 minutes
2 | O=c1[nH][nH]c(=O)c2nc3ccc(Cl)cc3cc12 [Mrz 2/501] | – | – | – | – | > 5.30 | effective neuroprotectants | > 16.0 mg/kg | > 16.0 mg/kg | –
3 | O=c1[nH]nc(O)c2c1cc1cc(Cl)ccc1[n+]2[O-] [Mrz 2/502, 8-chloro-4-hydroxy-1-oxo-1,2-dihydropyridazino[4,5-b]-quinoline 5-oxide] | 4.60 | 4.60 | < 4.00 | – | > 5.30 | effective neuroprotectants | 1.2 mg/kg | – | pIC50 (AMPA receptor; plateau currents, listed as 502, read-out: Plateau AMPA IC50): 3.82; Microelectrophoretic NMDA ID50 (NMDA receptor; listed as 502): 1.2 mg/kg; Microelectrophoretic AMPA ID50 (AMPA; listed as 502): 4.9 mg/kg
4 | O=c1[nH][nH]c(=O)c2nc3ccc(F)cc3cc12 [Mrz 2/519] | – | – | – | – | – | – | > 16.0 mg/kg | > 16.0 mg/kg | –
5 | O=c1[nH][nH]c(=O)c2nc3ccc(Br)cc3cc12 [Mrz 2/503] | – | – | – | – | < 4.70 | – | – | – | –
6 | O=c1[nH]nc(O)c2c1cc1cc(F)ccc1[n+]2[O-] [Mrz 2/516, 8-fluoro-4-hydroxy-1-oxo-1,2-dihydropyridazino[4,5-b]-quinoline 5-oxide] | 4.74 | 4.75 | < 4.00 | much better | – | – | 1.8 mg/kg | – | Microelectrophoretic NMDA ID50 (NMDA receptor; listed as 516): 1.8 mg/kg; Microelectrophoretic AMPA ID50 (AMPA; listed as 516): 3.6 mg/kg
